Values quoted from earlier work, collected in patent publication US20100292326A1, “PHARMACEUTICAL COMPOSITION COMPRISING S-NITROSOGLUTATHIONE AND POLYSACCHARIDE” (priority 2007, published 2010).

Details: buffer

For N[C@@H](CCC(=O)N[C@@H](CSN=O)C(=O)NCC(=O)O)C(=O)O [GSNO, S-nitrosoglutathione], the half-life is listed as 5.5 h.
